This is an account of results in ChEMBL document CHEMBL4825753 (J Med Chem, 2021).

The structures appear in SMILES notation.

A short description of data set [1]: Induction efferocytosis in human PBMC assessed as CD14-positive monocytes.
The target in data set [2] is T1, Receptor-type tyrosine-protein kinase FLT3 (Homo sapiens, UniProt P36888).
T1 sequence (P36888 whole entry): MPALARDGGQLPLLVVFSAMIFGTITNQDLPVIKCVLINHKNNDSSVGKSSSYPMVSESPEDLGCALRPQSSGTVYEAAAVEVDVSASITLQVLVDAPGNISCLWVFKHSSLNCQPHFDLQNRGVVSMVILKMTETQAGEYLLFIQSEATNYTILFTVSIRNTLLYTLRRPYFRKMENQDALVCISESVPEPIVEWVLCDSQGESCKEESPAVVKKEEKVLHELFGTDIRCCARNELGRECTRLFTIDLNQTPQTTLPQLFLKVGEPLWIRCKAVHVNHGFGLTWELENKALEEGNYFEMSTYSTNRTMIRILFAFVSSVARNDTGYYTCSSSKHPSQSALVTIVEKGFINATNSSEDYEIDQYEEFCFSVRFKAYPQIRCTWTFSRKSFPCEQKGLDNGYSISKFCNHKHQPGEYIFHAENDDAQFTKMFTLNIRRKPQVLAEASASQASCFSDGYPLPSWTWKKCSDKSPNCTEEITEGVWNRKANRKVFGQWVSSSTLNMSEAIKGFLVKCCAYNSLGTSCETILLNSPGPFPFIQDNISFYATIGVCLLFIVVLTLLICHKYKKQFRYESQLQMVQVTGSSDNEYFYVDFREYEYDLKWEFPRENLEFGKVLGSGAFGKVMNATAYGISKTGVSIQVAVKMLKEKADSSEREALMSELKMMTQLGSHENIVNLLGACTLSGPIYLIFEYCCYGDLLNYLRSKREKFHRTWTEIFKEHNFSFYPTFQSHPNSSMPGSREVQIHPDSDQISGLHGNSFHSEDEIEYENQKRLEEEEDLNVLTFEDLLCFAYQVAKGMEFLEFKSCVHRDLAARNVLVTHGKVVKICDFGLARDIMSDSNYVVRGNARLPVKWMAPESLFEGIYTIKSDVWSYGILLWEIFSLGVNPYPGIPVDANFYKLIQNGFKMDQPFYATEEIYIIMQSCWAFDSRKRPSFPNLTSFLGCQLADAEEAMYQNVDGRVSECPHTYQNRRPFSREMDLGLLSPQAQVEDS
Kind of data set: Inhibition of FLAG-tagged FLT3 (unknown origin) transfected in Cos-7 cells assessed as phosphorylation level incubated for 1 hr by ELISA. The class given is cell-based.

In data set [3] the target is T2, Tyrosine-protein kinase receptor UFO (Homo sapiens, UniProt P30530).
T2 sequence (P30530 whole entry): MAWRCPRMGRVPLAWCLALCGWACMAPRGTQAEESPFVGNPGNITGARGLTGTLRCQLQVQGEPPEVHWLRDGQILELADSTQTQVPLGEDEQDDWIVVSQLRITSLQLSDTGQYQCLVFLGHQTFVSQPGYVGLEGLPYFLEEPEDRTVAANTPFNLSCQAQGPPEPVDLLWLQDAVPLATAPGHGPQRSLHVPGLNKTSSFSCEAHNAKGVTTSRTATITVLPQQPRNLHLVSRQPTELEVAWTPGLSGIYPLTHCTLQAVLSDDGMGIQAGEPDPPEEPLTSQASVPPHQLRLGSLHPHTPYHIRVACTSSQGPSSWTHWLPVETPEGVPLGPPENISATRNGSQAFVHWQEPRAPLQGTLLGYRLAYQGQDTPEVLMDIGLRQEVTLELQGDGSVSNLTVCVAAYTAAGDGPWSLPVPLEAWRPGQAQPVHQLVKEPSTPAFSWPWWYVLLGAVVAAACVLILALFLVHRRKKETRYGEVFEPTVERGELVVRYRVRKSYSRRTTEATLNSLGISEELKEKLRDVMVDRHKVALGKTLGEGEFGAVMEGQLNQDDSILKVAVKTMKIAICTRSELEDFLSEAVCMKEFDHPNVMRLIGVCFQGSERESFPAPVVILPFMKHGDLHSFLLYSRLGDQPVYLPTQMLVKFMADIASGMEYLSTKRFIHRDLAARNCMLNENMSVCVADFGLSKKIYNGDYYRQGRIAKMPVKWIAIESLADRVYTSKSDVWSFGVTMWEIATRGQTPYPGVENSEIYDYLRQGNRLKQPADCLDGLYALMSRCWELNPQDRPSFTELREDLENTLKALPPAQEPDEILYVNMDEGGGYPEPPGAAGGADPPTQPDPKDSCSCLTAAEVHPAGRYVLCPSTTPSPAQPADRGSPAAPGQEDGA
Kind of data set: Inhibition of FLAG-tagged AXL (unknown origin) transfected in Cos-7 cells assessed as phosphorylation level incubated for 1 hr by ELISA. The class given is cell-based.

The nature of data set [4]: Lipophilicity, log D of the compound at pH 7.4. The class given is physicochemical. To be noted: buffer.
Data set [5] deals with T3, Tyrosine-protein kinase receptor TYRO3 (Homo sapiens, UniProt Q06418).
T3 sequence (Q06418 whole entry): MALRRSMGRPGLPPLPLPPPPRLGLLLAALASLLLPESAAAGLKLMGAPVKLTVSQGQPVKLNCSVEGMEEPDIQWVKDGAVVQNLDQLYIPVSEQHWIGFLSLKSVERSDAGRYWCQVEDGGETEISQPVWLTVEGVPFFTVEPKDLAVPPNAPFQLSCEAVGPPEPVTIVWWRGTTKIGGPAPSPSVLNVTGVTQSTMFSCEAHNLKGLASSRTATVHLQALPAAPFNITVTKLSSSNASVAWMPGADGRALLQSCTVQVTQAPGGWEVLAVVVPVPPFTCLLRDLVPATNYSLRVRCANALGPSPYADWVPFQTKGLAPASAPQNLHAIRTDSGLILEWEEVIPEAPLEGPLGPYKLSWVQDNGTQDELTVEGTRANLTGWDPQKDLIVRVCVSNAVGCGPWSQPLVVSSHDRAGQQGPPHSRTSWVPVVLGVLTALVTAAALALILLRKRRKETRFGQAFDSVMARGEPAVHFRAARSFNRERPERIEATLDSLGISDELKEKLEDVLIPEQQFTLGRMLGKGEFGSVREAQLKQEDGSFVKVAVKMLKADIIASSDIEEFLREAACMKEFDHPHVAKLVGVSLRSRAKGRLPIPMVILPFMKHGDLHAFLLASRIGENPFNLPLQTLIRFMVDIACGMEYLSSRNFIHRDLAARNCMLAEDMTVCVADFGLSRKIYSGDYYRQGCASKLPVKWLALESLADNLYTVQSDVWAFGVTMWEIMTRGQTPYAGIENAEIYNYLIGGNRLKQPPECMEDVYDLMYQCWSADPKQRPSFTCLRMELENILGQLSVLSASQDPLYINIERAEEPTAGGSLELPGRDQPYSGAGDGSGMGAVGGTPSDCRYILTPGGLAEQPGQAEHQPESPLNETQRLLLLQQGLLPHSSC
Kind of data set: Inhibition of FLAG-tagged Tyro3 (unknown origin) transfected in Cos-7 cells assessed as phosphorylation level incubated for 1 hr by ELISA. The class given is cell-based.

Data set [6] has as its target T2, Tyrosine-protein kinase receptor UFO. Kind of data set: Inhibition of AXL (unknown origin) by LC-MS analysis.
Data set [7] in a line: AUC in C57BL/6J mouse at 100 mg/kg, po measured up to 24 hrs. The class given is ADME, organism-based. Details: route oral, dose 100 mg/kg, time <=24. The note with it: in vivo.

`Cc1cc(-c2c(C)nn(C)c2C)cnc1-c1nnc(N(C)Cc2ccc3nccn3c2)o1`: the pIC50 in data set [1] is recorded as 6. The IC50 in data set [2] was greater than 31.6 µM; in data set [3], 6.31 µM; in data set [5] it was greater than 31.6 µM; in data set [6], 1 µM. Also, the log distribution coefficient (logD) in data set [4] was 2.8.

With `Cc1cc(-c2c(C)nn(C)c2C)ccc1-c1nnc(N(C)Cc2ccc3nccn3c2)o1`, the AUC at 24 h in data set [7] was 295 µM·h. The pIC50 in data set [1] worked out at 6.8. The IC50 in data set [2] is 20 µM; in data set [3], 0.398 µM; in data set [5] it was greater than 31.6 µM; in data set [6] it was 0.0794 µM. This molecule had a logD in data set [4] of 3.7.

Molecule `Cc1cc(-c2c(C)nn(C)c2C)cnc1-c1nnc(N(C)Cc2ccc3ncc(-c4ccc(CN(C)C)cc4)n3c2)o1` came in with an AUC at 24 h in data set [7] of 71 µM·h. The pIC50 in data set [1] is on record as 7.6. The IC50 is greater than 31.6 µM in data set [2], 0.1 µM in data set [3] and greater than 31.6 µM in data set [5]. Further, the logD in data set [4] amounted to 2.9.
